Source: the supplement of paper PMC13380429

What was measured:
A549-ACE2 [1] = experiment: phospholipidosis EC50; higher = less potent phospholipidosis inducer
[2] = system: A549-ACE2 infected with SARS-CoV-2; experiment: morphology score (similarity to uninfected cells); higher = more like uninfected cells; details: 24 h
Caco-2 [3] = experiment: cell viability relative to DMSO; higher = less toxic; details: 72 h
Vero E6 [4] = experiment: as above; details: 72 h
U2OS [5] = experiment: as above; details: 72 h
Calu-3 [6] = experiment: as above; details: 72 h
HepG2 [7] = experiment: as above; details: 72 h
A549-ACE2 [8] = experiment: drug-induced phospholipidosis relative to tamoxifen; higher = more phospholipidosis
[9] = system: A549-ACE2 infected with SARS-CoV-2; experiment: cell count relative to DMSO; higher = less toxic; details: 24 h
U2OS [10] = experiment: relative viability EC50 (midpoint between 100% and the lowest measured viability); higher = less toxic; details: 72 h
Caco-2 [11] = experiment: drug sensitivity score (DSS) for viability; higher = more toxic; extreme values may be limits of the assay; details: 72 h
Vero E6 [12] = experiment: as above; details: 72 h
U2OS [13] = experiment: as above; details: 72 h
Calu-3 [14] = experiment: as above; details: 72 h
HepG2 [15] = experiment: as above; details: 72 h
[16] = system: A549-ACE2 infected with SARS-CoV-2; experiment: SARS-CoV-2 infection rate relative to DMSO; higher = more infection; details: 24 h
Calu-3 [17] = experiment: relative viability EC50 (midpoint between 100% and the lowest measured viability); higher = less toxic; details: 72 h
HepG2 [18] = experiment: as above; details: 72 h

O=C(c1ccc(-c2ccc(Cl)cc2)o1)N(Cc1ccccn1)c1ccc(N2CCNCC2)cc1 [MK2-IN-1]
Details	SARS-CoV-2 infection rate [%]	cell count [%]	cell viability [%]	morphology score	phospholipidosis EC50 [µM]
A549-ACE2 [1], 24 h	–	–	–	–	3.59
A549-ACE2 [1], 48 h	–	–	–	–	4.69
A549-ACE2 [1], 72 h	–	–	–	–	4.85
Caco-2 [3], 1 nM	–	–	104	–	–
Caco-2 [3], 10 nM	–	–	111	–	–
Caco-2 [3], 100 nM	–	–	100	–	–
Caco-2 [3], 1000 nM	–	–	131	–	–
Caco-2 [3], 10000 nM	–	–	52.9	–	–
Calu-3 [6], 1 nM	–	–	92.2	–	–
Calu-3 [6], 10 nM	–	–	112	–	–
Calu-3 [6], 100 nM	–	–	93.9	–	–
Calu-3 [6], 1000 nM	–	–	116	–	–
Calu-3 [6], 10000 nM	–	–	54.9	–	–
HepG2 [7], 1 nM	–	–	102	–	–
HepG2 [7], 10 nM	–	–	109	–	–
HepG2 [7], 100 nM	–	–	115	–	–
HepG2 [7], 1000 nM	–	–	97.9	–	–
HepG2 [7], 10000 nM	–	–	68.2	–	–
U2OS [5], 1 nM	–	–	97.9	–	–
U2OS [5], 10 nM	–	–	103	–	–
U2OS [5], 100 nM	–	–	95.9	–	–
U2OS [5], 1000 nM	–	–	104	–	–
U2OS [5], 10000 nM	–	–	83.2	–	–
Vero E6 [4], 1 nM	–	–	96.5	–	–
Vero E6 [4], 10 nM	–	–	94	–	–
Vero E6 [4], 100 nM	–	–	98.1	–	–
Vero E6 [4], 1000 nM	–	–	95.7	–	–
Vero E6 [4], 10000 nM	–	–	67.6	–	–
[2], 0.1 µM	–	–	–	0.14	–
[2], 0.3 µM	–	–	–	0.26	–
[2], 1 µM	–	–	–	0.34	–
[2], 3 µM	–	–	–	0.75	–
[9], 0.1 µM	–	100	–	–	–
[9], 0.3 µM	–	102	–	–	–
[9], 1 µM	–	107	–	–	–
[9], 3 µM	–	117	–	–	–
[16], 0.1 µM	97	–	–	–	–
[16], 0.3 µM	88	–	–	–	–
[16], 1 µM	77	–	–	–	–
[16], 3 µM	29	–	–	–	–

drug-induced phospholipidosis [%], A549-ACE2 [8]
Details	0.3 µM	0.833333 µM	3.33333 µM	6.66667 µM	10 µM	30 µM
24 h	3.45	9.1	31.8	109	102	96.8
48 h	6.99	4.08	23	127	127	153
72 h	5.37	-1.19	20.6	118	139	–

Details	drug sensitivity score	relative viability EC50 [µM]
Caco-2 [11]	1.5	–
Calu-3 [14]	1.7	–
HepG2 [15]	1.7	–
U2OS [10]	–	> 10
U2OS [13]	0.2	–
Vero E6 [12]	2.2	–

OCCN1CCN(CCCN2c3ccccc3Sc3ccc(C(F)(F)F)cc32)CC1 [fluphenazine]
Details	SARS-CoV-2 infection rate [%]	cell count [%]	cell viability [%]	morphology score	phospholipidosis EC50 [µM]
A549-ACE2 [1], 24 h	–	–	–	–	3.49
A549-ACE2 [1], 48 h	–	–	–	–	5.08
A549-ACE2 [1], 72 h	–	–	–	–	6.62
Caco-2 [3], 1 nM	–	–	101	–	–
Caco-2 [3], 10 nM	–	–	100	–	–
Caco-2 [3], 100 nM	–	–	88.2	–	–
Caco-2 [3], 1000 nM	–	–	85.2	–	–
Caco-2 [3], 10000 nM	–	–	64.4	–	–
Calu-3 [6], 1 nM	–	–	101	–	–
Calu-3 [6], 10 nM	–	–	110	–	–
Calu-3 [6], 100 nM	–	–	96.8	–	–
Calu-3 [6], 1000 nM	–	–	98.1	–	–
Calu-3 [6], 10000 nM	–	–	22.4	–	–
HepG2 [7], 1 nM	–	–	102	–	–
HepG2 [7], 10 nM	–	–	90.9	–	–
HepG2 [7], 100 nM	–	–	95.9	–	–
HepG2 [7], 1000 nM	–	–	96.1	–	–
HepG2 [7], 10000 nM	–	–	49.4	–	–
U2OS [5], 1 nM	–	–	101	–	–
U2OS [5], 10 nM	–	–	101	–	–
U2OS [5], 100 nM	–	–	94.7	–	–
U2OS [5], 1000 nM	–	–	92.6	–	–
U2OS [5], 10000 nM	–	–	84.2	–	–
Vero E6 [4], 1 nM	–	–	103	–	–
Vero E6 [4], 10 nM	–	–	100	–	–
Vero E6 [4], 100 nM	–	–	101	–	–
Vero E6 [4], 1000 nM	–	–	95.5	–	–
Vero E6 [4], 10000 nM	–	–	52	–	–
[2], 0.1 µM	–	–	–	0.13	–
[2], 0.3 µM	–	–	–	0.02	–
[2], 1 µM	–	–	–	0.49	–
[2], 3 µM	–	–	–	0.75	–
[9], 0.1 µM	–	103	–	–	–
[9], 0.3 µM	–	99	–	–	–
[9], 1 µM	–	90	–	–	–
[9], 3 µM	–	122	–	–	–
[16], 0.1 µM	97	–	–	–	–
[16], 0.3 µM	99	–	–	–	–
[16], 1 µM	83	–	–	–	–
[16], 3 µM	44	–	–	–	–

drug-induced phospholipidosis [%], A549-ACE2 [8]
Details	0.3 µM	0.833333 µM	3.33333 µM	6.66667 µM	10 µM	30 µM
24 h	3.92	11.1	44.3	81.8	103	78.9
48 h	2.29	10	32.4	91.3	114	–
72 h	4.14	10.7	24.3	80.2	116	–

Details	drug sensitivity score	relative viability EC50 [µM]
Caco-2 [11]	3.4	–
Calu-3 [14]	4.5	–
Calu-3 [17]	–	2.99
HepG2 [15]	3.3	–
HepG2 [18]	–	2.53
U2OS [10]	–	> 10
U2OS [13]	0.5	–
Vero E6 [12]	3.2	–
